Results published in patent publication US20260325533A1, “CDK INHIBITOR COMPOUNDS” (ALEKSIA THERAPEUTICS, INC., priority 2023, published 2026).
pIC50: −log10 of the molar value. Where two headings read alike, the source gives them in different places.

Legend:
Assay type in all cases: biochemical
CDK2/CCNE1 = CDK2/CCNE1 (Homo sapiens, UniProt P24941); test: CDK2 homogeneous time-resolved fluorescence (HTRF) kinase assay; details: CDK2/CCNE
How it was run: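 Compounds were titrated 11-point, half-log from typically 10 μM against 3 nM CDK2/cyclin E1 at 1 mM ATP, with a 20 min enzyme preincubation. Phosphorylation of 50 nM ULight-4E-BP1 peptide over 60 min at 23 °C was detected by europium anti-phospho antibody TR-FRET.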

CDK6/CCND1 = CDK6/CCND1 (Homo sapiens, UniProt Q00534); test: CDK6 homogeneous time-resolved fluorescence (HTRF) kinase assay; details: CDK6/CCND
Chain of CDK6/CCND1 (Q00534 whole entry): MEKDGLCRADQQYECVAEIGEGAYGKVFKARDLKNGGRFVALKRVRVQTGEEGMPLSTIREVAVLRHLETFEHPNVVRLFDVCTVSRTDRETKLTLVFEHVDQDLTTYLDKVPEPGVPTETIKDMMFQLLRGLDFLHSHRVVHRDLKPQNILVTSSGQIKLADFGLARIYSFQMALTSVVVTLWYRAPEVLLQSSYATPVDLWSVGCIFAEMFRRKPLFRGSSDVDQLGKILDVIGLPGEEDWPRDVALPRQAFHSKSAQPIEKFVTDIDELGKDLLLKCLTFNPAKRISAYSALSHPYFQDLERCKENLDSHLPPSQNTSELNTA
Chain of CDK6/CCND1 (P24385 whole entry partner): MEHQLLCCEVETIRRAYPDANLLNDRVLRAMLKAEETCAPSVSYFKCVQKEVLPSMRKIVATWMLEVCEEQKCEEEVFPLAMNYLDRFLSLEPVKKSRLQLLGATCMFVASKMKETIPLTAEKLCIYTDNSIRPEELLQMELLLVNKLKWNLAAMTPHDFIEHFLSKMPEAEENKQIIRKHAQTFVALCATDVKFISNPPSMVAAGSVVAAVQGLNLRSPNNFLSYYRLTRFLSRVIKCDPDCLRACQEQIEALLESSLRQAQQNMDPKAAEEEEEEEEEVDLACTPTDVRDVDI
How it was run: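 Enzyme pre-incubated 20 min at 23 °C with compound, then reacted 60 min at 23 °C with 1 mM ATP and 50 nM ULight-4E-BP1 (Thr37/46) peptide; 1 nM enzyme, 1% DMSO. EDTA-stopped, Eu-anti-phospho antibody TR-FRET read (665 nm or 665/615 ratio); 11-point half-log titration from 10 μM gave IC50.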

CDK1/CCNB1 = CDK1/CCNB1 (Homo sapiens, UniProt P06493); test: CDK1 homogeneous time-resolved fluorescence (HTRF) kinase assay; details: CDK1/CCNB
Chain of CDK1/CCNB1 (P06493 whole entry): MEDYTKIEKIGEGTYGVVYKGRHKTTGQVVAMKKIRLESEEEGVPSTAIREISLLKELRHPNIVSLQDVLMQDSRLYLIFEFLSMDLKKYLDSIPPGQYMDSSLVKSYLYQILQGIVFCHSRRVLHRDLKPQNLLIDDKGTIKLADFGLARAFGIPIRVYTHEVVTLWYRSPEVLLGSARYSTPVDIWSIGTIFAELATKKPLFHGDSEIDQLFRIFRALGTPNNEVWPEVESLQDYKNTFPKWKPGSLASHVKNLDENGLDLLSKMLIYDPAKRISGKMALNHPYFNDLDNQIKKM
Chain of CDK1/CCNB1 (P14635 whole entry partner): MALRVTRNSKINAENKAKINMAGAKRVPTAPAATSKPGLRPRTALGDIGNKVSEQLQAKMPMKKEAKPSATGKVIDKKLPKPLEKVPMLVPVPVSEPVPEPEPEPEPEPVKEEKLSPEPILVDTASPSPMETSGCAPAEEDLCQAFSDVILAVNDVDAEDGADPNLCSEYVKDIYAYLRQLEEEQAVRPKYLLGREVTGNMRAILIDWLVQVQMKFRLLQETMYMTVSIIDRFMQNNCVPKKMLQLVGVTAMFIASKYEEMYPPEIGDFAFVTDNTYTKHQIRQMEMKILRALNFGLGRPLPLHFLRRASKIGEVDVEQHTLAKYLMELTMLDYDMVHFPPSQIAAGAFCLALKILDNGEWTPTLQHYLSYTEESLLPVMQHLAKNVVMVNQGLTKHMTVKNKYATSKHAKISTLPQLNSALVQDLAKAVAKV
How it was run: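 0.5 nM CDK1/CCNB1 was preincubated 20 min at 23 °C with compound in HEPES pH-unspecified buffer (MgCl2, EGTA, DTT, Tween 20), then reacted 60 min with 1 mM ATP and 50 nM ULight-4E-BP1 (Thr37/46) peptide. EDTA-stopped reactions were detected with 2 nM Eu-anti-phospho antibody; IC50 from 11-point half-log titrations.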

CDK4/CCND3 = CDK4/CCND3 (Homo sapiens, UniProt P11802); test: CDK4 homogeneous time-resolved fluorescence (HTRF) kinase assay; details: CDK4/CCND
Chain of CDK4/CCND3 (P11802 whole entry): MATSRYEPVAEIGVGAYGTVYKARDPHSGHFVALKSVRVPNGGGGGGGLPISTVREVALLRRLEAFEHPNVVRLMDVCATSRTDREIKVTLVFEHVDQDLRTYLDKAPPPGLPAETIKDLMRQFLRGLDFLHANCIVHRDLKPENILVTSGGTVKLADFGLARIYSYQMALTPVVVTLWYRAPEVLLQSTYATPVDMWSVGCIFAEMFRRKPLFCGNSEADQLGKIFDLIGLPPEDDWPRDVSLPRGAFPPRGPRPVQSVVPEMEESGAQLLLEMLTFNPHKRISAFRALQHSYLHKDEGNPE
Chain of CDK4/CCND3 (P30281 whole entry partner): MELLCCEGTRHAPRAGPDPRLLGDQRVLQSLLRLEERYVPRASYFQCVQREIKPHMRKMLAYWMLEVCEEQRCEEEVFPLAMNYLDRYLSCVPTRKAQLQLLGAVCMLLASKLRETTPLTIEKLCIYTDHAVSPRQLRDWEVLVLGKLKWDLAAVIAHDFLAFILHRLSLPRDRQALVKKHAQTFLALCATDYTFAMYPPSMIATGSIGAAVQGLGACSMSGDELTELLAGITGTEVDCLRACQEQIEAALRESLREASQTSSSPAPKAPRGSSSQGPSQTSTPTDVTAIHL
How it was run: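 CDK4/CCND3 at 1.5 nM was preincubated with compound for 20 min at 23 °C, then reacted for 60 min with 1 mM ATP and 50 nM ULight-4E-BP1 (Thr37/46) peptide. The reaction was stopped with EDTA, and phosphorylation was read by HTRF with a Eu-anti-phospho antibody. IC50 values came from 11-point half-log titrations, typically from 10 μM.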

[1] = <25 nM, read-out: CDK2/CCNE IC50, <25 nM
[2] = 25-250 nM, 1 mM ATP, read-out: CDK6/CCND IC50, 25-250 nM
[3] = 25-250 nM, read-out: CDK1/CCNB IC50, 25-250 nM
[4] = >250 nM, read-out: CDK4/CCND IC50, >250 nM
[5] = 25-250 nM marked x, read-out: CDK2/CCNE IC50 25-250 nM
[6] = >250 nM marked x, read-out: CDK6/CCND IC50 >250 nM
[7] = >250 nM marked x, read-out: CDK1/CCNB IC50 >250 nM
[8] = >250 nM marked x, read-out: CDK4/CCND IC50 >250 nM
[9] = x = IC50 <25 nM, read-out: CDK2/CCNE IC50 (<25 nM)
[10] = x = IC50 >250 nM, read-out: CDK6/CCND IC50 (>250 nM column)
[11] = x = IC50 >250 nM, read-out: CDK1/CCNB IC50 (>250 nM column)
[12] = x = IC50 >250 nM, read-out: CDK4/CCND IC50 (>250 nM column)
[13] = >250 nM, read-out: CDK1/CCNB IC50 >250 nM
[14] = 25-250 nM, read-out: CDK4/CCND IC50, 25-250 nM
[15] = x = IC50 25-250 nM, read-out: CDK1/CCNB IC50 (25-250 nM)
[16] = x = IC50 25-250 nM, read-out: CDK2/CCNE IC50 (25-250 nM)
[17] = 25-250 nM, read-out: CDK2/CCNE IC50, 25-250 nM
[18] = >250 nM, 1 mM ATP, read-out: CDK6/CCND IC50, >250 nM

SMILES: Cc1c(-c2nccc3cnc(Nc4ccc(S(N)(=O)=O)cc4)cc23)ccc2c1cnn2CC(O)(C(F)(F)F)C(F)(F)F [Ex 726, 4-((5-(4-methyl-1-(3,3,3-trifluoro-2-hydroxy-2-(trifluoromethyl)propyl)-1H-indazol-5-yl)-2,6-naphthyridin-3-yl)amino)benzenesulfonamide]
- pIC50 (CDK2/CCNE1; [1]): > 7.60
- pIC50 (CDK6/CCND1; [2]): 6.60 to 7.60
- pIC50 (CDK1/CCNB1; [3]): 6.60 to 7.60
- pIC50 (CDK4/CCND3; [4]): < 6.60

SMILES: O=S(=O)(CCO)c1ccc(Nc2cc3c(N4CCC(O)C4)nccc3cn2)cc1 (racemic) [Ex 221, 1-(7-((4-((2-hydroxyethyl)sulfonyl)phenyl)amino)-2,6-naphthyridin-1-yl)pyrrolidin-3-ol]
- pIC50 (CDK2/CCNE1; [5]): 6.60 to 7.60
- pIC50 (CDK6/CCND1; [6]): < 6.60
- pIC50 (CDK1/CCNB1; [7]): < 6.60
- pIC50 (CDK4/CCND3; [8]): < 6.60

SMILES: CCC1(CC)C(=O)Nc2cc(C#Cc3nccc4cnc(Nc5ccc(S(=O)(=O)CC)cc5)cc34)ccc21 [Ex 430, 3,3-diethyl-6-((7-((4-(ethylsulfonyl)phenyl)amino)-2,6-naphthyridin-1-yl)ethynyl)indolin-2-one]
- pIC50 (CDK2/CCNE1; [9]): > 7.60
- pIC50 (CDK6/CCND1; [10]): < 6.60
- pIC50 (CDK1/CCNB1; [11]): < 6.60
- pIC50 (CDK4/CCND3; [12]): < 6.60

SMILES: CCC1(CC)C(=O)Nc2cc(C#Cc3nccc4cnc(Nc5ccc(S(=O)(=O)CC(F)(F)F)cc5F)cc34)ccc21 [Ex 283, 3,3-diethyl-6-((7-((2-fluoro-4-((2,2,2-trifluoroethyl)sulfonyl)phenyl)amino)-2,6-naphthyridin-1-yl)ethynyl)indolin-2-one]
- pIC50 (CDK2/CCNE1; >250 nM marked x, read-out: CDK2/CCNE IC50 >250 nM): < 6.60
- pIC50 (CDK6/CCND1; [6]): < 6.60
- pIC50 (CDK1/CCNB1; [7]): < 6.60
- pIC50 (CDK4/CCND3; [8]): < 6.60

SMILES: Cc1c(-c2nccc3cnc(Nc4ccc(S(=O)(=O)N[C@H](C)CCO)cc4)cc23)ccc2c1cnn2CC(C)(C)O [Ex 747, (R)-4-((5-(1-(2-hydroxy-2-methylpropyl)-4-methyl-1H-indazol-5-yl)-2,6-naphthyridin-3-yl)amino)-N-(4-hydroxybutan-2-yl)benzenesulfonamide]
- pIC50 (CDK2/CCNE1; [1]): > 7.60
- pIC50 (CDK6/CCND1; [2]): 6.60 to 7.60
- pIC50 (CDK1/CCNB1; [13]): < 6.60
- pIC50 (CDK4/CCND3; [14]): 6.60 to 7.60

SMILES: Cc1c(-c2nccc3cnc(Nc4ccc(S(C)(=O)=O)cc4)cc23)ccc2c1cnn2CC(O)(C(F)(F)F)C(F)(F)F [Example 595, 1,1,1,3,3,3-hexafluoro-2-((4-methyl-5-(7-((4-(methylsulfonyl)phenyl)amino)-2,6-naphthyridin-1-yl)-1H-indazol-1-yl)methyl)propan-2-ol]
- pIC50 (CDK2/CCNE1; [9]): > 7.60
- pIC50 (CDK6/CCND1; x = IC50 25-250 nM, read-out: CDK6/CCND IC50 (25-250 nM)): 6.60 to 7.60
- pIC50 (CDK1/CCNB1; [11]): < 6.60
- pIC50 (CDK4/CCND3; [12]): < 6.60

SMILES: CC(C)S(=O)(=O)c1ccc(Nc2cc3c(C#Cc4ccc5c(c4)NC(=O)C54CC4)nccc3cn2)cc1 [Ex 393, 6'-((7-((4-(isopropylsulfonyl)phenyl)amino)-2,6-naphthyridin-1-yl)ethynyl)spiro[cyclopropane-1,3'-indolin]-2'-one]
- pIC50 (CDK2/CCNE1; [9]): > 7.60
- pIC50 (CDK6/CCND1; [10]): < 6.60
- pIC50 (CDK1/CCNB1; [15]): 6.60 to 7.60
- pIC50 (CDK4/CCND3; [12]): < 6.60

SMILES: CS(=O)(=O)c1ccc(Nc2cc3c(C#Cc4cccc5cn[nH]c45)nccc3cn2)cc1 [Ex 621, 5-((1H-indazol-7-yl)ethynyl)-N-(4-(methylsulfonyl)phenyl)-2,6-naphthyridin-3-amine]
- pIC50 (CDK2/CCNE1; [16]): 6.60 to 7.60
- pIC50 (CDK6/CCND1; [10]): < 6.60
- pIC50 (CDK1/CCNB1; [11]): < 6.60
- pIC50 (CDK4/CCND3; [12]): < 6.60

SMILES: C[C@@H]1CN(c2cc(Nc3cc4c(C#Cc5ccc(=O)[nH]n5)nccc4cn3)cnc2O)CCN1C [Ex 853, (R)-6-((7-((5-(3,4-dimethylpiperazin-1-yl)-6-hydroxypyridin-3-yl)amino)-2,6-naphthyridin-1-yl)ethynyl)pyridazin-3(2H)-one absolute]
- pIC50 (CDK2/CCNE1; [17]): 6.60 to 7.60
- pIC50 (CDK6/CCND1; [18]): < 6.60
- pIC50 (CDK1/CCNB1; [13]): < 6.60
- pIC50 (CDK4/CCND3; [4]): < 6.60

SMILES: Cc1c(-c2nccc3cnc(Nc4ccc(S(C)(=O)=O)c(Br)c4)cc23)ccc2c1cnn2CC(C)(C)O [Ex 749, 1-(5-(7-((3-bromo-4-(methylsulfonyl)phenyl)amino)-2,6-naphthyridin-1-yl)-4-methyl-1H-indazol-1-yl)-2-methylpropan-2-ol]
- pIC50 (CDK2/CCNE1; [17]): 6.60 to 7.60
- pIC50 (CDK6/CCND1; [18]): < 6.60
- pIC50 (CDK1/CCNB1; [13]): < 6.60
- pIC50 (CDK4/CCND3; [4]): < 6.60

SMILES: COc1cc(NS(=O)(=O)c2ccc(Nc3cc4c(-c5ccc6c(cnn6CC(C)(C)O)c5C)nccc4cn3)cc2)nc(OC)c1 [Ex 814, N-(4,6-dimethoxypyridin-2-yl)-4-((5-(1-(2-hydroxy-2-methylpropyl)-4-methyl-1H-indazol-5-yl)-2,6-naphthyridin-3-yl)amino)benzenesulfonamide]
- pIC50 (CDK2/CCNE1; [1]): > 7.60
- pIC50 (CDK6/CCND1; [18]): < 6.60
- pIC50 (CDK1/CCNB1; [13]): < 6.60
- pIC50 (CDK4/CCND3; [4]): < 6.60

SMILES: CS(=O)(=O)c1ccc(Nc2cc3c(ccnc3[C@H]3CC[C@H](C(N)=O)CC3)cn2)cc1 [Ex 223, (1r,4r)-4-(7-((4-(methylsulfonyl)phenyl)amino)-2,6-naphthyridin-1-yl)cyclohexane-1-carboxamide]
- pIC50 (CDK2/CCNE1; [5]): 6.60 to 7.60
- pIC50 (CDK6/CCND1; [6]): < 6.60
- pIC50 (CDK1/CCNB1; [7]): < 6.60
- pIC50 (CDK4/CCND3; 25-250 nM marked x, read-out: CDK4/CCND IC50 25-250 nM): 6.60 to 7.60

SMILES: CS(=O)(=O)c1ccc(Nc2cc3c(C#Cc4cnn5ccccc45)nccc3cn2)cc1 [Ex 478, N-(4-(methylsulfonyl)phenyl)-5-(pyrazolo[1,5-a]pyridin-3-ylethynyl)-2,6-naphthyridin-3-amine]
- pIC50 (CDK2/CCNE1; [16]): 6.60 to 7.60
- pIC50 (CDK6/CCND1; [10]): < 6.60
- pIC50 (CDK1/CCNB1; [11]): < 6.60
- pIC50 (CDK4/CCND3; [12]): < 6.60

SMILES: N#Cc1ccc(C#Cc2nccc3cnc(Nc4ccc(S(=O)(=O)CCO)cc4)cc23)cc1 [Ex 665, 4-((7-((4-((2-hydroxyethyl)sulfonyl)phenyl)amino)-2,6-naphthyridin-1-yl)ethynyl)benzonitrile]
- pIC50 (CDK2/CCNE1; [16]): 6.60 to 7.60
- pIC50 (CDK6/CCND1; [10]): < 6.60
- pIC50 (CDK1/CCNB1; [11]): < 6.60
- pIC50 (CDK4/CCND3; [12]): < 6.60

SMILES: Cc1c(-c2nccc3cnc(Nc4ccc(-n5ccnc5)cc4)cc23)ccc2c1cnn2CC(C)(C)O [Ex 928, 1-(5-(7-((4-(1H-imidazol-1-yl)phenyl)amino)-2,6-naphthyridin-1-yl)-4-methyl-1H-indazol-1-yl)-2-methylpropan-2-ol]
- pIC50 (CDK2/CCNE1; [1]): > 7.60
- pIC50 (CDK6/CCND1; [2]): 6.60 to 7.60
- pIC50 (CDK1/CCNB1; [3]): 6.60 to 7.60
- pIC50 (CDK4/CCND3; [14]): 6.60 to 7.60

SMILES: CS(=O)(=O)N1CCC(Nc2cc3c(-c4ccc5cc[nH]c5c4)nccc3cn2)CC1 [Ex 89, 5-(1H-indol-6-yl)-N-(1-(methylsulfonyl)piperidin-4-yl)-2,6-naphthyridin-3-amine]
- pIC50 (CDK2/CCNE1; <25 nM, read-out: CDK2/CCNE IC50 <25 nM): > 7.60
- pIC50 (CDK6/CCND1; <25 nM, read-out: CDK6/CCND IC50 <25 nM): > 7.60
- pIC50 (CDK1/CCNB1; 25-250 nM marked x, read-out: CDK1/CCNB IC50 25-250 nM): 6.60 to 7.60
- pIC50 (CDK4/CCND3; <25 nM, read-out: CDK4/CCND IC50 <25 nM): > 7.60

SMILES: CC1(C)C(=O)Nc2cc(C#Cc3nccc4cnc(Nc5ccc(S(C)(=O)=O)cc5C(F)(F)F)cc34)ccc21 [Ex 352, 3,3-dimethyl-6-((7-((4-(methylsulfonyl)-2-(trifluoromethyl)phenyl)amino)-2,6-naphthyridin-1-yl)ethynyl)indolin-2-one]
- pIC50 (CDK2/CCNE1; x = IC50 >250 nM, read-out: CDK2/CCNE IC50 (>250 nM column)): < 6.60
- pIC50 (CDK6/CCND1; [10]): < 6.60
- pIC50 (CDK1/CCNB1; [11]): < 6.60
- pIC50 (CDK4/CCND3; [12]): < 6.60

SMILES: O=C1Nc2cc(C#Cc3nccc4cnc(Nc5ccc(S(=O)(=O)C6CC6)cc5)cc34)ccc2C12CCC2 [Ex 385, 6'-((7-((4-(cyclopropylsulfonyl)phenyl)amino)-2,6-naphthyridin-1-yl)ethynyl)spiro[cyclobutane-1,3'-indolin]-2'-one]
- pIC50 (CDK2/CCNE1; [9]): > 7.60
- pIC50 (CDK6/CCND1; [10]): < 6.60
- pIC50 (CDK1/CCNB1; [15]): 6.60 to 7.60
- pIC50 (CDK4/CCND3; [12]): < 6.60
